Assay results reported in US10857105B2, “Compounds and compositions for intracellular delivery of therapeutic agents” (ModernaTX, Inc., priority 2017, dated 2020).

Experiments:
[1] = Particle size and polydispersity index of nanoparticle compositions (Zetasizer Nano ZS); format: physicochemical
Experimental: A Zetasizer Nano ZS (Malvern Instruments Ltd, Malvern, Worcestershire, UK) can be used to determine the particle size, the polydispersity index (PDI) and the zeta potential of the nanoparticle compositions in 1×PBS in determining particle size and 15 mM PBS in determining zeta potential.
(§1) Initial studies were performed to compare the delivery efficiency of nanoparticle compositions including various compounds according to Formula (I), (IA), (IB), (II), (IIa), (IIb), (IIc), (IId), (IIe), (IIf), (IIg), or (III). The cationic lipid MC3 is a current standard in the art. Accordingly, the standard MC3 formulation including about 50 mol % MC3, about 10 mol % DSPC, about 38.5 mol % cholesterol, and about 1.5 mol % PEG-DMG was used as a basis for this study. Nanoparticle compositions including DSPC as a phospholipid, cholesterol as a structural lipid, PEG-DMG as a PEG lipid, an RNA, and a compound according to Formula (I), (IA), (IB), (II), (IIa), (IIb), (IIc), (IId), (IIe), (IIf), (IIg), or (III) selected from Compounds 1-159, 168-170, and 173-175 were prepared according to or via methods similar to those described in Examples 1 and 2. The ratios of the lipids were 50:10:38.5:1.5 mol % for the lipid according to Formula (I), (IA), (IB), (II), (IIa), (IIb), (IIc), (IId), (IIe), (IIf), (IIg), or (III):DSPC:cholesterol:PEG-DMG. The RNA used was an mRNA encoding luciferase (Luc) or hEPO, wherein each uridine was replaced N1-methyl pseudouridine. Tables 1A-1E summarize the content and characteristics of the formulations.

[2] = Encapsulation efficiency of RNA in nanoparticle compositions (RIBOGREEN assay); format: physicochemical
Experimental: For nanoparticle compositions including an RNA, a QUANT-IT™ RIBOGREEN® RNA assay (Invitrogen Corporation Carlsbad, Calif.) can be used to evaluate the encapsulation of an RNA by the nanoparticle composition. The samples are diluted to a concentration of approximately 5 μg/mL, in a TE buffer solution (10 mM Tris-HCl, 1 mM EDTA, pH 7.5). 50 μL of the diluted samples are transferred to a polystyrene 96 well plate and either 50 μL of TE buffer or 50 μL of a 2% Triton X-100 solution is added to the wells. The plate is incubated at a temperature of 37° C. for 15 minutes. The RIBOGREEN® reagent is diluted 1:100 in TE buffer, and 100 μL of this solution is added to each well. The fluorescence intensity can be measured using a fluorescence plate reader (Wallac Victor 1420 Multilabel Counter; Perkin Elmer, Waltham, Mass.) at an excitation wavelength of, for example, about 480 nm and an emission wavelength of, for example, about 520 nm. The fluorescence values of the reagent blank are subtracted from that of each of the samples and the percentage of free RNA is determined by dividing the fluorescence intensity of the intact sample (without addition of Triton X-100) by the fluorescence value of the disrupted sample (caused by the addition of Triton X-100).
as §1

[3] = system: modified luciferase; test: Luciferase expression in liver, lung, spleen and femur 6 hours after intravenous administration to mice; format: in vivo; conditions: 6 hours after intravenous 0.5 mpk, mice
Experimental: The efficacy of the nanoparticle compositions presented in Table 1A was further evaluated by measuring the expression of modified luciferase in the liver, lung, spleen, and femur upon administration of a given composition. Formulations were administered intravenously to mice (n=3) at a dosage of 0.5 mpk and bioluminescence measured after 6 hours. The standard MC3 formulation and a PBS control were also tested. […] Flux in the liver was lowest for compositions including Compounds 58, 59, 137, and 141. Flux in the spleen was highest for compositions including Compounds 4, 7, 33, 34, 48, 53, 108, 129, 130, and 148, and lowest for compositions including Compounds 9, 59, 124, and 141.

[4] = Table 1A, lipid:DSPC:cholesterol:PEG-DMG 50:10:38.5:1.5 mol %
[5] = Table 1B, formulated with hEPO mRNA

Row | SMILES | Size [1, 4] | EE [2, 4] | Total Flux, Liver [3] | Total Flux, Lung [3] | Total Flux, Spleen [3] | Size [1, 5] | EE [2, 5]
1 | CCCCCCCC/C=C\CCCCCCCCN(CCO)CCCCCCCC(=O)OC(CCCCCCCC)CCCCCCCC [Compound 31, heptadecan-9-yl (Z)-8-((2-hydroxyethyl)(octadec-9-en-1-yl)amino) octanoate] | 73.9 nm | 95.11% | 5.17E+09 | 7.55E+06 | 9.42E+07 | – | –
2 | CCCCCCCCC(CCCCCCCC)OC(=O)CCCCCCCN(CCO)CCCCCC(=O)OC(C)CCCCCCCCOC(C)=O (stereo not drawn) [Compound 235, Heptadecan-9-yl 8-((6-((10-acetoxydecan-2-yl)oxy)-6-oxohexyl)(2-hydroxyethyl)amino)octanoate] | – | – | – | – | – | 228 nm | 40.9%
3 | CCCCCCCCCOC(=O)CCCCCCCN(CCCCCCCC(=O)OC(CCCCCCCC)CCCCCCCC)CCCOC(=O)NC [Compound 175, Heptadecan-9-yl 8-((3-((methylcarbamoyl)oxy)propyl)(8-(nonyloxy)-8-oxooctyl)amino)octanoate] | 65.7 nm | 94.8% | – | – | – | – | –
4 | CCCCCCCCCOC(=O)CCCCCCCN(CCO)CCCCCCCC(=O)OC(CCC)CCC [Compound 58, heptan-4-yl 8-((2-hydroxyethyl)(8-(nonyloxy)-8-oxooctyl)amino) octanoate] | 130.8 nm | 92.54% | 8.71E+04 | 1.21E+04 | 2.38E+05 | – | –
5 | CCCCCCCCCOC(=O)CCCCCCCN(CCCCCCCC(=O)OC(CCCCCCCC)CCCCCCCC)CCCC(N)=O [Compound 243, Heptadecan-9-yl 8-((4-amino-4-oxobutyl)(8-(nonyloxy)-8-oxooctyl)amino)octanoate] | – | – | – | – | – | 90.6 nm | 99.4%
6 | CCCCCCCCC(CCCCCCCC)OC(=O)CCCCCCCN(CCO)CCCCCCCCC1CC1CCCCCCCC (stereo not drawn) [Compound 47, heptadecan-9-yl 8-((2-hydroxyethyl)(8-(2-octylyclopropyl)octyl)amino)octanoate] | 80.6 nm | 96.40% | 4.86E+09 | 8.71E+06 | 8.33E+07 | – | –
7 | CCCCCCCCCOC(=O)CCCCCCCN(CCO)CCCCCCCC(=O)OC1CCC(CCCCC)CC1 (stereo not drawn) [Compound 79, Nonyl 8-((2-hydroxyethyl)(8-oxo-8-((4-pentylcyclohexyl)oxy)octyl)amino)octanoate] | 93.7 nm | 89.1% | 3.15E+06 | 6.13E+04 | 6.45E+05 | – | –
8 | CCCCCCCCCN(CCCCCCCC(=O)OC(CCCCCCCC)CCCCCCCC)CCCn1ccnc1 [Compound 8, Heptadecan-9-yl 8-((3-(1H-imidazol-1-yl)propyl)(nonyl)amino)octanoate] | 121.0 nm | 95.8% | 7.87E+08 | 4.06E+06 | 1.51E+08 | – | –
9 | CCCCCCCCCOC(=O)CCCCCCCN(CCCCCCCC(=O)OC(CCCCCCCC)CCCCCCCC)CCC(=O)O [Compound 125, 3-((8-(Heptadecan-9-yloxy)-8-oxooctyl)(8-(nonyloxy)-8-oxooctyl)amino)propanoic acid] | 90.9 nm | 79.6% | – | – | – | – | –
10 | CCCCCCCCCOC(=O)CCCCCCCN(CCO)CCCCCCCC(=O)OC1CCCCCCCCCCCCCC1 [Compound 81, Cyclopentadecyl 8-((2-hydroxyethyl)(8-(nonyloxy)-8-oxooctyl)amino)octanoate] | 99.2 nm | 95.4% | 2.74E+08 | 6.23E+06 | 4.49E+07 | – | –
11 | CCCCCCCCC(CCCCCCCC)OC(=O)CCCCCCCN(CCO)CCCC(=O)OC(CCCCCC)CCCCCCCC (stereo not drawn) [Compound 73, Heptadecan-9-yl 8-((2-hydroxyethyl)(4-oxo-4-(pentadecan-7-yloxy)butyl)amino)octanoate] | 59.2 nm | 95.7% | 7.93E+08 | 6.17E+06 | 9.45E+06 | – | –
12 | CCCCCCCCCOC(=O)CCCCCCCN(CCO)CCCCCCCCCOP(=O)(OCCCCCCCCC)OCCCCCCCCC [Compound 127, Nonyl 8-((9-((bis(nonyloxy)phosphoryl)oxy)nonyl)(2-hydroxyethyl)amino)octanoate] | 110.4 nm | 89.5% | 1.94E+08 | 5.26E+06 | 3.21E+08 | – | –
13 | CCCCCCCCC(CCCCCCCC)OC(=O)CCCCCCCN(CCO)CCCC(=O)OCCCCCCC [Compound 54, heptadecan-9-yl 8-((4-(heptyloxy)-4-oxobutyl)(2-hydroxyethyl)amino) octanoate] | 112.9 nm | 96.71% | 5.57E+09 | 1.12E+07 | 1.64E+08 | – | –
14 | CCCCCCCCCOC(=O)CCCCCCCN(CCCCCCCC(=O)OC(CCCCCCCC)CCCCCCCC)CCCN(C)S(C)(=O)=O [Compound 173, Heptadecan-9-yl 8-((3-(N-methylmethylsulfonamido)propyl)(8-(nonyloxy)-8-oxooctyl)amino)octanoate] | 75.5 nm | 92.89% | – | – | – | – | –
15 | CCCCCCCCCOC(=O)CCCCCCCN(CCO)CCCCCCCC(=O)OC(CCCC)CCCC [Compound 57, nonan-5-yl 8-((2-hydroxyethyl)(8-(nonyloxy)-8-oxooctyl)amino) octanoate] | 128.4 nm | 94.33% | 9.36E+05 | 3.18E+04 | 2.47E+06 | – | –
16 | CCCCCCCCCCCOC(=O)CCCCCN(CCO)CCCCCCCC(=O)N(CCCCCCCC)CCCCCCCC [Compound 129, Undecyl 6-((8-(dioctylamino)-8-oxooctyl)(2-hydroxyethyl)amino)hexanoate] | 86.3 nm | 77.2% | 6.65E+08 | 9.89E+06 | 5.09E+08 | – | –
17 | CCCCCCCCC(CCCCCCCC)OC(=O)CCCCCCCN(CCO)CCCC(=O)OCCCCC [Compound 52, heptadecan-9-yl 8-((2-hydroxyethyl)(4-oxo-4-(pentyloxy)butyl)amino) octanoate] | 130.5 nm | 93.25% | 5.86E+08 | 2.80E+06 | 8.30E+07 | – | –
18 | CCCCCCCCCOC(=O)CCCCCCCN(CCC#N)CCCCCCCC(=O)OC(CCCCCCCC)CCCCCCCC [Compound 21, Heptadecan-9-yl 8-((2-cyanoethyl)(8-(nonyloxy)-8-oxooctyl)amino) octanoate] | 53.5 nm | −15.1% | – | – | – | – | –
19 | CCCCCCCCC(CCCCCCCC)OC(=O)CCCCCCCN(CCO)CCCC(=O)OCCCC [Compound 51, heptadecan-9-yl 8-((4-butoxy-4-oxobutyl)(2-hydroxyethyl)amino) octanoate] | – | 89.83% | 2.49E+07 | 3.67E+05 | 2.80E+07 | – | –
20 | CCCCCCCCCOC(=O)CCCCCCCN(CCCCCCCC(=O)OC(CCCCCCCC)CCCCCCCC)CCCn1ccnn1 [Compound 179, Heptadecan-9-yl 8-((3-(1H-1,2,3-triazol-1-yl)propyl)(8-(nonyloxy)-8-oxooctyl)amino)octanoate] | 71.6 nm | 94.7% | – | – | – | – | –
